For data set [1], the target named is Sodium-dependent dopamine transporter (Homo sapiens, UniProt Q01959). The data set is described as follows: Inhibition of [3H]WIN-35428 uptake in human DAT transfected HEK293 cells. The class given is cell-based.
In data set [2] the target is Sodium-dependent serotonin transporter (Homo sapiens, UniProt P31645). Description: Inhibition of [3H]Citalopram uptake in human 5HTT transfected HEK293 cells. The class given is cell-based.
Data set [3] addresses Sodium-dependent noradrenaline transporter (Homo sapiens, UniProt P23975).
Description: Inhibition of [3H]Nisoxetine uptake in human noradrenaline transporter transfected HEK293 cells
For data set [4], the system named is P-gp. The data set is described as follows: Apparent permeability from apical to basolateral side of the dog MDCK cells expressing P-gp transporter. The class given is ADME, cell-based, Canis lupus familiaris. As to conditions: MDCK-MDR1.
Data set [5] deals with P-gp. Description: Apparent permeability from basolateral to apical side of the dog MDCK cells expressing Pgp transporter. The class given is ADME, cell-based, Canis lupus familiaris. The following applies: MDCK-MDR1.
Data set [6] in a line: Metabolic stability assessed as intrinsic clearance in human liver microsome. The class given is ADME. As to conditions: liver microsomes.
A short description of data set [7]: Lipophilicity, logD at pH 7.4. The class given is physicochemical. As to conditions: buffer.
Data set [8] is described as follows: Dissociation constant, pKa of the compound. The class given is physicochemical.
Data set [9] deals with Cytochrome P450 2D6 (Homo sapiens, UniProt P10635). The data set is described as follows: Inhibition of CYP2D6. The class given is ADME.
Data set [10] concerns the target Voltage-gated inwardly rectifying potassium channel KCNH2 (Homo sapiens, UniProt Q12809). Description: Displacement of [3H]dofetilide from human ERG channel.
For data set [11], the target named is Mu-type opioid receptor (Homo sapiens) (UniProt P35372). The data set is described as follows: Inhibition of mu opioid receptor at 10 uM.
Data set [12] concerns Hepatocyte. The data set is described as follows: Metabolic stability assessed as intrinsic clearance in human hepatocytes. The class given is ADME, cell-based, Liver.
Data set [13] is described as follows: Half life in human liver microsome. As to conditions: liver microsomes. The class given is ADME.
Data set [14] in a line: Apparent permeability from apical to basolateral side of the human CaCO2 membrane. As to conditions: Caco-2. The class given is ADME, cell-based.
Data set [15] is described as follows: Apparent permeability from basolateral to apical side of the human CaCO2 membrane. The class given is ADME, cell-based. As to conditions: Caco-2.
Data set [16] deals with T1, Cytochrome P450 1A2 (Homo sapiens, UniProt P05177).
T1 sequence (P05177 whole entry): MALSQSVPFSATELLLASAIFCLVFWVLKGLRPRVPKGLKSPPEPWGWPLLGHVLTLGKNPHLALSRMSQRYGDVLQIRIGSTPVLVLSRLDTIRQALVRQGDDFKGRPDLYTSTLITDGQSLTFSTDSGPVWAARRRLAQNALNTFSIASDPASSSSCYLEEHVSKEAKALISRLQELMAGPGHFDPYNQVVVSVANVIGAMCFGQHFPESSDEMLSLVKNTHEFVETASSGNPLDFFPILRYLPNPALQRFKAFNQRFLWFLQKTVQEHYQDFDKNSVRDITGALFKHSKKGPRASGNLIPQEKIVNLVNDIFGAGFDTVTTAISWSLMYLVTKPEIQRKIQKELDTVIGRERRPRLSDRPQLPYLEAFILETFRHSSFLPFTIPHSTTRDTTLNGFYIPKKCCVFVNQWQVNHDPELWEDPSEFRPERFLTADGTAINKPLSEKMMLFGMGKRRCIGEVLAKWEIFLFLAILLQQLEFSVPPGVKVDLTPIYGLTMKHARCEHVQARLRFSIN
The data set is described as follows: Inhibition of CYP1A2. The class given is ADME.

Data set [17] addresses Cytochrome P450 3A4 (Homo sapiens, UniProt P08684). Description: Inhibition of CYP3A4. The class given is ADME.
Data set [18] can be described thus: Binding affinity to sodium channel site 2.
Data set [19] can be described thus: Binding affinity to calcium channel L-type at diltiazem site.
Data set [20] in a line: Displacement of [3H]noradrenaline from rat noradrenaline transporter expressed in HEK293 cells. The class given is cell-based.
The subject of data set [21] is Rattus norvegicus. Description: Increase in noradrenaline level in interstitial fluid of conscious rat prefrontal cortex at 0.3 mg/kg, sc relative to baseline. The class given is functional. As to conditions: route subcutaneous.
Data set [22] is described as follows: Lipophilicity, logP of the compound. The class given is physicochemical. The following applies: octanol/water.
For data set [23], the target named is T2, 5-hydroxytryptamine receptor 2C (Homo sapiens) (UniProt P28335).
T2 sequence (whole entry): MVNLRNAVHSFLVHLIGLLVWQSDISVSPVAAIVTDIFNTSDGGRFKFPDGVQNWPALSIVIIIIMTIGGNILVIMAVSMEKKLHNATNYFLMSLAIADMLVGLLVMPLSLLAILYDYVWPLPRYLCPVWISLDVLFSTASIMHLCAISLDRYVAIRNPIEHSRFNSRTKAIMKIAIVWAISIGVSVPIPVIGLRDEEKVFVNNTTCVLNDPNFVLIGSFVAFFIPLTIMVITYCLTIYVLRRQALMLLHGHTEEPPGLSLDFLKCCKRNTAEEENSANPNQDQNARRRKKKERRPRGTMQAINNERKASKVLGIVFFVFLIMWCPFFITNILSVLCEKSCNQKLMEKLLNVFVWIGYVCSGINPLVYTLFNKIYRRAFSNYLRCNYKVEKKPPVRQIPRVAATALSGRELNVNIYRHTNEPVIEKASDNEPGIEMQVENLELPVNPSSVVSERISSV
The data set is described as follows: Inhibition of 5HT2C receptor at 10 uM.

Data set [24] deals with Kappa-type opioid receptor (Homo sapiens) (UniProt P41145). Description: Inhibition of kappa opioid receptor at 10 uM.

This note sets out measurements from ChEMBL document CHEMBL1144031, “[4-(Phenoxy)pyridin-3-yl]methylamines: a new class of selective noradrenaline reuptake inhibitors” (Bioorg Med Chem Lett, 2008).

Molecules are shown by their SMILES. Bounds are passed on as bounds.

Sequence of Sodium-dependent noradrenaline transporter (P23975 whole entry): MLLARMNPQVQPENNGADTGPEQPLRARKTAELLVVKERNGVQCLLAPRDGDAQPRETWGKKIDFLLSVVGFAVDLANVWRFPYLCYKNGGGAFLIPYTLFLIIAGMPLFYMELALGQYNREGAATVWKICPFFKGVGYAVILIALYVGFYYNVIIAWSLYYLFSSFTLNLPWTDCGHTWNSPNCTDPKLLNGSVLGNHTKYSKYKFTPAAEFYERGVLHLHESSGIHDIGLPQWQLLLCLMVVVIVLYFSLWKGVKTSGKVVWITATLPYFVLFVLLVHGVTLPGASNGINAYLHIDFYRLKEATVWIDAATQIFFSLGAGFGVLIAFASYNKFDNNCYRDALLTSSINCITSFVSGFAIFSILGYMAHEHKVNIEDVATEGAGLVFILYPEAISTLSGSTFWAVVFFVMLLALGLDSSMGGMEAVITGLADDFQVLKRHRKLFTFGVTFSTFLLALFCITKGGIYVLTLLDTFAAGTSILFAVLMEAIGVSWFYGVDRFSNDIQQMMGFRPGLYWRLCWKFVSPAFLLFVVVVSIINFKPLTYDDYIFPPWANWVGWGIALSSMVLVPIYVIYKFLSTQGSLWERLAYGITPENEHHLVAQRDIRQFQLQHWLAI
Sequence of Sodium-dependent dopamine transporter (Q01959 whole entry): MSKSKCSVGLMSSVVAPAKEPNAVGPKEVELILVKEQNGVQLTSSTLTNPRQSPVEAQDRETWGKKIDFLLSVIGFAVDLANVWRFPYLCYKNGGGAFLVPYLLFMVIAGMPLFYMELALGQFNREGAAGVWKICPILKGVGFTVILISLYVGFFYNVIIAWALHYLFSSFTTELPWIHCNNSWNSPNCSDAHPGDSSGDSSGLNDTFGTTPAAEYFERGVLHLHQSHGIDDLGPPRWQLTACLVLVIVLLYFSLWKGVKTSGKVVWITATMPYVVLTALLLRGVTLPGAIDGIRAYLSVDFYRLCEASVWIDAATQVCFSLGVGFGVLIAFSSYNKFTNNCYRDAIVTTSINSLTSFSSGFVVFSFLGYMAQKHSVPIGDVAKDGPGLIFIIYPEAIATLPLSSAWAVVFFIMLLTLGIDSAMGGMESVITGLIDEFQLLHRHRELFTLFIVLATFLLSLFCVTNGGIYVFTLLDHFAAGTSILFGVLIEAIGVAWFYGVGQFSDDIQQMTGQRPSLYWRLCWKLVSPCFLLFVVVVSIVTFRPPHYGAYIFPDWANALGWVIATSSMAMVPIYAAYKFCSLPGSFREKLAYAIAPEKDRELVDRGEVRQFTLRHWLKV
Sequence of Sodium-dependent serotonin transporter (P31645 whole entry): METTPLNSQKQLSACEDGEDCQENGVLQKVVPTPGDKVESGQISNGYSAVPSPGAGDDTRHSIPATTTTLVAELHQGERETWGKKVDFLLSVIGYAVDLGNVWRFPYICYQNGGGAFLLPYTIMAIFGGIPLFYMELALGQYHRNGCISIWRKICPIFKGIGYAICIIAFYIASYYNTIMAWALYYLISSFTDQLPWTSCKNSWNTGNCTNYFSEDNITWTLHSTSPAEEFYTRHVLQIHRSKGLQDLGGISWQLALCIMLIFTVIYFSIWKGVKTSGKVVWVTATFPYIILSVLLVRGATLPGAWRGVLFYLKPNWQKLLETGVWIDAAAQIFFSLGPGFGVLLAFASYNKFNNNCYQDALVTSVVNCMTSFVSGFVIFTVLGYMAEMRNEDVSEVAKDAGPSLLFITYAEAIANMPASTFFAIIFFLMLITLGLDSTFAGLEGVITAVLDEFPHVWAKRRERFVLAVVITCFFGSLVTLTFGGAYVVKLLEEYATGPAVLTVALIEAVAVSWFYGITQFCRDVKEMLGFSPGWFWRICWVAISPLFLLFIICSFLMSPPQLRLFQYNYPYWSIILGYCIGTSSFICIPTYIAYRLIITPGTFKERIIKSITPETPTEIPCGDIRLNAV
Sequence of Cytochrome P450 2D6 (P10635 whole entry): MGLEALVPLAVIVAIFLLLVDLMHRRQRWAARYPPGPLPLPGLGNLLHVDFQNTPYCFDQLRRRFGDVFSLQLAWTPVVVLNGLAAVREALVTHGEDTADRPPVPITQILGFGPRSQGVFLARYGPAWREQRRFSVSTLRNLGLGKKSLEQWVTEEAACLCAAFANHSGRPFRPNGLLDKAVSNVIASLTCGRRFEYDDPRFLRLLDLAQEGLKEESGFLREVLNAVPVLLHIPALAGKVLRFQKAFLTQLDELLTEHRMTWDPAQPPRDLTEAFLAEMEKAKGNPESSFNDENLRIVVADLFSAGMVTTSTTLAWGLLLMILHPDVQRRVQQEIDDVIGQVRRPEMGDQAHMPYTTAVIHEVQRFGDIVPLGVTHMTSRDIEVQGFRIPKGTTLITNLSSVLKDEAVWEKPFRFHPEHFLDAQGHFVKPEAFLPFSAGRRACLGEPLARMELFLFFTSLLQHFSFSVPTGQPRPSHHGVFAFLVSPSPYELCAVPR
Sequence of Voltage-gated inwardly rectifying potassium channel KCNH2 (Q12809 whole entry): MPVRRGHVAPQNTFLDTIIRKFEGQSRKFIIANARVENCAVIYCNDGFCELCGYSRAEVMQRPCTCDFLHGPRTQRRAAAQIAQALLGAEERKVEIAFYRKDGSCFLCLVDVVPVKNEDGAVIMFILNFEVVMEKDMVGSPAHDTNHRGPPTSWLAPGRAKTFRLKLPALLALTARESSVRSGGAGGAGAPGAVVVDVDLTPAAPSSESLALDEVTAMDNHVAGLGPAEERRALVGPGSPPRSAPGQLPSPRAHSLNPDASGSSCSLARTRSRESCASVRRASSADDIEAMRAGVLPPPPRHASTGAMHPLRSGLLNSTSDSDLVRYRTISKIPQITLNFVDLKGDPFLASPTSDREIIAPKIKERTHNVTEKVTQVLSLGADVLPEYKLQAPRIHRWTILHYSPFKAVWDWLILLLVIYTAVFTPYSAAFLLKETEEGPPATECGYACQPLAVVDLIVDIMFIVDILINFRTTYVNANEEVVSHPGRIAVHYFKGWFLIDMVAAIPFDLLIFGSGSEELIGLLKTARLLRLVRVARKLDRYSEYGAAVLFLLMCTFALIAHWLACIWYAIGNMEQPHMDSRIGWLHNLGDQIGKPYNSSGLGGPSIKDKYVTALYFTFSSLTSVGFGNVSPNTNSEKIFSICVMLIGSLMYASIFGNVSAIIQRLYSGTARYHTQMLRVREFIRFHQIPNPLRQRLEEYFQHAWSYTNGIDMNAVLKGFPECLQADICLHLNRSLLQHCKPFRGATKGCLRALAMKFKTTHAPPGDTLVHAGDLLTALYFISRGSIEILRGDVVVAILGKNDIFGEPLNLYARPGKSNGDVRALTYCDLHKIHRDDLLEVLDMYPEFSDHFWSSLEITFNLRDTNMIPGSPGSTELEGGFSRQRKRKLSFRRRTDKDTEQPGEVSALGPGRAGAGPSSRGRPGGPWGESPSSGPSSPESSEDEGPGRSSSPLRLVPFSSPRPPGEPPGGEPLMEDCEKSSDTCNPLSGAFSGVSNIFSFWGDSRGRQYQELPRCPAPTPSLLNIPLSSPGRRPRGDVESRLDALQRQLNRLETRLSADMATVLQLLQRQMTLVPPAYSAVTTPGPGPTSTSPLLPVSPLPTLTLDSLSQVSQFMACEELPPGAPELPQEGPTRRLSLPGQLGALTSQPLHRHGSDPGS
Sequence of Kappa-type opioid receptor (Homo sapiens) (P41145 whole entry): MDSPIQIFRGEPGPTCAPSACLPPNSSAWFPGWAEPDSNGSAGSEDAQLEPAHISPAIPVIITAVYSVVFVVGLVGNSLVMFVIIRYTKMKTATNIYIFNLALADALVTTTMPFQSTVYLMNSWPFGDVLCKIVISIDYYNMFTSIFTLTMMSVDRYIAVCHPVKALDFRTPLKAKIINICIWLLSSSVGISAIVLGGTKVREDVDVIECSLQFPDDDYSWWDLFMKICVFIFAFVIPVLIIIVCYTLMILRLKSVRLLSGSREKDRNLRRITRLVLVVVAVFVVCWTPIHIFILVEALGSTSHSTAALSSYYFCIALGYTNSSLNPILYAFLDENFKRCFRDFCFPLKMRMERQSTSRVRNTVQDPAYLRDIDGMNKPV
Sequence of Mu-type opioid receptor (Homo sapiens) (P35372 whole entry): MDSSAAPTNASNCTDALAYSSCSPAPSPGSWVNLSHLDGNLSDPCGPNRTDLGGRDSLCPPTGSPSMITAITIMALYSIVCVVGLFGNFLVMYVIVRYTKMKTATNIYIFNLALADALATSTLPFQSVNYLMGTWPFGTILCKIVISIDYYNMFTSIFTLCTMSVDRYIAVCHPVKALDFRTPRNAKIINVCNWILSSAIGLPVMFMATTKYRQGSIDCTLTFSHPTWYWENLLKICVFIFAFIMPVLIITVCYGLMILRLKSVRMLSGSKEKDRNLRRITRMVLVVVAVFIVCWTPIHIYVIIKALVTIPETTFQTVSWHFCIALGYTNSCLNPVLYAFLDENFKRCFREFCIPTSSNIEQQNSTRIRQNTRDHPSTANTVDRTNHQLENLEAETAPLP
Sequence of Cytochrome P450 3A4 (P08684 whole entry): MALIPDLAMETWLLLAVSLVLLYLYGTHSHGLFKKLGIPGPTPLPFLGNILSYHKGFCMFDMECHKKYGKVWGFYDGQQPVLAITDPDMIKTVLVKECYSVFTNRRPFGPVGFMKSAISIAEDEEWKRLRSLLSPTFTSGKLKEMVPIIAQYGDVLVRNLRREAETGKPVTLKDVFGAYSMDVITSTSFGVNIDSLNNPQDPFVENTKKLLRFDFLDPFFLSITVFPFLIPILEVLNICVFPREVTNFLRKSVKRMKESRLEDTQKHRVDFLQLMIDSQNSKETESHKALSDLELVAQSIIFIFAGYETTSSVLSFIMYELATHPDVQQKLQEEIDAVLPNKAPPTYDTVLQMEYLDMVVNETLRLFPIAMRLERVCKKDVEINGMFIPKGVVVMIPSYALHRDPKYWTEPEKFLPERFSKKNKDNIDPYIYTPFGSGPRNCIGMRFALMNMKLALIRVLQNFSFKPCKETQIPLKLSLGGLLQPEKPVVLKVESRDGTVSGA

As for `CCOc1ccccc1Oc1cc(C)ncc1CNC`, the results for the Ki in [1], in data set [2] and in data set [3] were 2390 nM, 218 nM and 461 nM, respectively.

Regarding `CNCc1cnc(C)cc1Oc1ccccc1Cl`, the Ki in data set [1] is 834 nM; in [2], 88 nM; in data set [3], 255 nM.

Consider `CNCc1cnc(C)cc1Oc1ccccc1C(C)C`, for which the Ki in data set [1] worked out at 2130 nM; in [2], 1980 nM; in [3] it was 82 nM.

Consider `Cc1cc(Oc2ccccc2C(C)C)c(CN(C)C)cn1`, for which the Papp A→B in data set [4] is 38 ×10⁻⁶ cm/s. Moreover, the Papp B→A in data set [5] was 39 ×10⁻⁶ cm/s. Also, the inhibition constant (Ki) came out at 2880 nM in data set [1], 1470 nM in data set [2] and 13 nM in data set [3]. The microsomal CLint in data set [6] was 17 µL/min/mg. The same molecule registered a logD in data set [7] of 2.5.

As to `Cc1cc(Oc2ccccc2Cl)c(CN(C)C)cn1`, the Ki is 1160 nM in data set [1], 242 nM in data set [2] and 131 nM in data set [3].

Turning to `CCOc1ccccc1Oc1cc(C)ncc1CN(C)C`, the Ki is 2150 nM in [1] and 4750 nM in [2].

For the molecule `CNCc1cnc(C)cc1Oc1ccccc1C`, the Ki in data set [1] amounted to 1520 nM; in data set [2], 136 nM; in [3], 951 nM.

Take `CCc1cc(Cl)ccc1Oc1cc(C)ncc1CNC`: the Ki was 4350 nM in data set [1], 18 nM in [2] and 74 nM in data set [3].

`CCc1ccccc1Oc1cc(C)ncc1CNC`: the figures for the Ki in data set [1], in data set [2] and in data set [3] were 2280 nM, 440 nM and 366 nM, respectively.

Regarding `CCc1cc(Cl)ccc1Oc1cc(C)ncc1CN(C)C`, the Ki turned out to be 13 nM in data set [2] and 22 nM in data set [3].

Regarding `CCCc1ccccc1Oc1cc(C)ncc1CNC`, the Ki turned out to be 1980 nM in data set [1], 821 nM in data set [2] and 438 nM in data set [3].

Take `CNCc1cnc(C)cc1Oc1ccccc1OC`: the Ki in data set [1] came to 4800 nM; in [2], 265 nM; in data set [3] it was 921 nM.

For the molecule `Cc1cc(Oc2ccccc2C)c(CN(C)C)cn1`, the Ki in [1] came to 1410 nM; in data set [2] it was 235 nM; in [3] it was 194 nM.

Regarding `Cc1cc(Oc2ccccc2Oc2ccccc2)c(CN(C)C)cn1`, the Papp A→B in data set [4] came to 41 ×10⁻⁶ cm/s. Besides, in [5], the Papp B→A is 36 ×10⁻⁶ cm/s. The figures for the inhibitory constant (Ki) in data set [1], in data set [2] and in data set [3] were 2640 nM, 4060 nM and 10 nM, respectively. The microsomal CLint in data set [6] stood at 29 µL/min/mg. The same molecule returned a logD in data set [7] of 2.4. This molecule had a pKa in [8] of 4.4. In data set [9], this molecule showed an IC50 of 610 nM.

As to `CNCc1cnc(C)cc1Oc1ccccc1SC`, the Ki in [1] is 1750 nM; in data set [2], 133 nM; in [3] it was 232 nM.

With `CSc1ccccc1Oc1cc(C)ncc1CN(C)C`, the Ki in [1] is 1930 nM; in [2], 384 nM; in data set [3], 58 nM.

For `CCc1ccccc1Oc1cc(C)ncc1CN(C)C`, the Ki was 2660 nM in data set [1], 279 nM in [2] and 27 nM in data set [3]. The microsomal CLint in data set [6] is below 7 µL/min/mg. In [7], this molecule displayed a logD of 2.1. In [10], the half-maximal inhibitory concentration (IC50) was above 20 µM.

For the molecule `CNCc1cnc(C)cc1Oc1ccccc1Oc1ccccc1`, the inhibition in [11], in data set [23] and in data set [24] was above 80% in each case. Moreover, in data set [12], the CL is 8 µL/min/mg. For the same molecule, the half-life in data set [13] is above 120 min. Besides, the Papp A→B in [4] came out at 25 ×10⁻⁶ cm/s; in data set [14], 11 ×10⁻⁶ cm/s. The Papp B→A in [5] came out at 41 ×10⁻⁶ cm/s; in data set [15], 19 ×10⁻⁶ cm/s. Also, the IC50 in [16] was above 3 µM; in [17] it was above 3 µM; in [20], 2.5 nM; in [9], 3400 nM. Moreover, the inhibition constant Ki in data set [18] was found to be 3.4 µM; in [19], 1200 nM; in data set [1], 1910 nM; in data set [2], 823 nM; in data set [10], 5.8 µM; in data set [3], 10 nM. In data set [21], this molecule yielded an Activity of 400%. For the same molecule, in [22], the logP amounted to 4.4. Moreover, the microsomal CLint in data set [6] was below 7 µL/min/mg. In data set [7], this molecule gave a logD of 1.6. In data set [8], this molecule gave a pKa of 4.4.

Regarding `COc1ccccc1Oc1cc(C)ncc1CN(C)C`, the values for the Ki in data set [1], in [2] and in data set [3] were 4060 nM, 1420 nM and 296 nM, respectively.

With `CCCc1ccccc1Oc1cc(C)ncc1CN(C)C`, the Ki was found to be 2250 nM in [1], 2820 nM in [2] and 159 nM in data set [3].
